As a reminder, the EC50 is the concentration giving half of the maximal effect. High values mean a less potent agent, low ones a more potent agent. Usually solubility stands for the concentration that dissolves in the medium under given conditions. High values mean a readily soluble substance, low ones a poorly soluble substance.

Series [1] has as its target T1, Peroxisome proliferator-activated receptor alpha (Homo sapiens, UniProt Q07869).
T1 sequence (Q07869 whole entry): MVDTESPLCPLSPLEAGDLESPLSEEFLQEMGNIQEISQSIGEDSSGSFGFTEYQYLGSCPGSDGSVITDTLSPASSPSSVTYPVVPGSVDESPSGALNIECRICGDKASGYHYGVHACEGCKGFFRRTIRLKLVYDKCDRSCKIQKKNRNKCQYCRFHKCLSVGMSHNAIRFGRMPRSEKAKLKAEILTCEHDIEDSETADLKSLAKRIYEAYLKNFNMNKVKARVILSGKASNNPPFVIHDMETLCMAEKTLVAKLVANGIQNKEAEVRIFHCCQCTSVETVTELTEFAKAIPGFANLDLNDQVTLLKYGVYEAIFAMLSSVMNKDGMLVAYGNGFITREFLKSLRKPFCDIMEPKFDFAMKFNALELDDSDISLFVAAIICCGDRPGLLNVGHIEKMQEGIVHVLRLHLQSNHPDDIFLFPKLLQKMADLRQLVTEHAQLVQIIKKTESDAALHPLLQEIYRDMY
Put plainly: Transactivation of Gal4-tagged PPARalpha ligand binding domain (unknown origin) expressed in COS7 cells measured after overnight incubation by luciferase reporter gene assay. It counts as cell-based, COS-7.

The nature of series [2]: Cytotoxic activity against human HepG2 cells assessed as LDH release at 30 uM after 48 hrs by LDH release assay (reference value: 100%). (In general: LDH in the medium is a marker of cell lysis.)
Series [3] can be described thus: Antiproliferative activity against human HepG2 cells assessed as cell viability at 5 uM after 48 hrs by WST1 assay (reference value: 100%). Format: cell-based. The following applies: read-out: Activity. Background: Tetrazolium assays rely on reduction of a dye to a coloured formazan, in cell work by metabolically active cells.
Series [4] in a line: Antiproliferative activity against human HepG2 cells assessed as cell viability at 10 uM after 48 hrs by WST1 assay (reference value: 100%). Conditions: read-out: Activity. Format: cell-based.
A short description of series [5]: Cytotoxic activity against human HepG2 cells assessed as LDH release at 5 uM after 48 hrs by LDH release assay (reference value: 100%).
The target of series [6] is T2, Bile acid receptor (Homo sapiens) (UniProt Q96RI1).
T2 sequence (whole entry): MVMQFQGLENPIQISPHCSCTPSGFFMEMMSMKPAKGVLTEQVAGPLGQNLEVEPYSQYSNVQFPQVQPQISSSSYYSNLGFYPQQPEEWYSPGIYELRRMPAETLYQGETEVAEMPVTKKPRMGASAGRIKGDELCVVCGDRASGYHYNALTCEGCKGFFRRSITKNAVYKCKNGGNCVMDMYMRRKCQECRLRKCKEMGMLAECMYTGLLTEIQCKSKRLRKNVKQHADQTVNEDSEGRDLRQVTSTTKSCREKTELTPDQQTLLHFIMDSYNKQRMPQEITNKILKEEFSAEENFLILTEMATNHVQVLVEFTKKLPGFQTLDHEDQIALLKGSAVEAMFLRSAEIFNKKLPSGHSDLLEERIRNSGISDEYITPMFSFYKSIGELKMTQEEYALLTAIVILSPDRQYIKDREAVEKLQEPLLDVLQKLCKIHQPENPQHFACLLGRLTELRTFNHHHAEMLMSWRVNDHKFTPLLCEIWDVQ
Nature of the series: Transactivation of human FXR expressed in human HeLa cells incubated for 24 hrs by luciferase reporter gene assay relative to GW4064. Format: cell-based.

Series [7] is described as follows: Metabolic stability in Sprague-Dawley rat liver microsomes assessed as parent compound remaining at 10 uM measured after 30 mins in presence of NADPH regenerating system by HPLC method (reference value: 97.6 +/- 0.8%). Format: ADME. Conditions: read-out: Stability. For orientation: Microsomes from liver hold many membrane-bound enzymes, among them those of drug oxidation.

Series [8] has as its target PPAR delta/gamma (Homo sapiens) (UniProt P37231+Q03181). Nature of the series: Selectivity index, ratio of EC50 for Gal4-tagged PPARgamma ligand binding domain (unknown origin) to EC50 for Gal4-tagged PPARdelta ligand binding domain (unknown origin).
Series [9] can be described thus: Cytotoxic activity against human HepG2 cells assessed as LDH release at 10 uM after 48 hrs by LDH release assay (reference value: 100%).
For series [10], the target named is T3, Peroxisome proliferator-activated receptor delta (Homo sapiens, UniProt Q03181).
T3 sequence (Q03181 whole entry): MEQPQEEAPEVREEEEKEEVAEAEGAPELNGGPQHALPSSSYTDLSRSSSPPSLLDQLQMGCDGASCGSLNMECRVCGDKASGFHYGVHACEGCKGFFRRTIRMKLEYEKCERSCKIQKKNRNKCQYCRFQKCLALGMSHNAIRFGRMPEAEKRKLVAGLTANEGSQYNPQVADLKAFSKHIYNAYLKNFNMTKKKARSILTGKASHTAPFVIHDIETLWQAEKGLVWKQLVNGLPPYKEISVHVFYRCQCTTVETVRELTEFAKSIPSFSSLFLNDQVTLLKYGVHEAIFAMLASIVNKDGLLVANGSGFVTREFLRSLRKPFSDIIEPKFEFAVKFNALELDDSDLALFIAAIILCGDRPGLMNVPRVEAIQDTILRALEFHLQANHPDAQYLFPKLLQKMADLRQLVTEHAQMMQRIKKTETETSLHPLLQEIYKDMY
Nature of the series: Transactivation of Gal4-tagged PPARdelta ligand binding domain (unknown origin) expressed in COS7 cells measured after overnight incubation by luciferase reporter gene assay. It counts as cell-based, COS-7.

Series [11] deals with T4, Peroxisome proliferator-activated receptor delta (Homo sapiens) (UniProt Q03181).
T4 sequence (whole entry): T3 sequence (Q03181 whole entry)
Nature of the series: Transactivation of Gal4-tagged PPARdelta ligand binding domain (unknown origin) expressed in COS7 cells measured after overnight incubation by luciferase reporter gene assay relative to L165,041. It counts as cell-based. The following applies: Chlorocebus aethiops; COS-7.

The species named for series [12] is Homo sapiens. Nature of the series: Selectivity index, ratio of EC50 for Gal4-tagged PPARalpha ligand binding domain (unknown origin) to EC50 for Gal4-tagged PPARdelta ligand binding domain (unknown origin).
Series [13] is described as follows: Aqueous solubility of the compound. The following applies: aqueous medium (not specified further). Format: physicochemical.
The target of series [14] is T5, Peroxisome proliferator-activated receptor gamma (Homo sapiens, UniProt P37231).
T5 sequence (P37231 whole entry): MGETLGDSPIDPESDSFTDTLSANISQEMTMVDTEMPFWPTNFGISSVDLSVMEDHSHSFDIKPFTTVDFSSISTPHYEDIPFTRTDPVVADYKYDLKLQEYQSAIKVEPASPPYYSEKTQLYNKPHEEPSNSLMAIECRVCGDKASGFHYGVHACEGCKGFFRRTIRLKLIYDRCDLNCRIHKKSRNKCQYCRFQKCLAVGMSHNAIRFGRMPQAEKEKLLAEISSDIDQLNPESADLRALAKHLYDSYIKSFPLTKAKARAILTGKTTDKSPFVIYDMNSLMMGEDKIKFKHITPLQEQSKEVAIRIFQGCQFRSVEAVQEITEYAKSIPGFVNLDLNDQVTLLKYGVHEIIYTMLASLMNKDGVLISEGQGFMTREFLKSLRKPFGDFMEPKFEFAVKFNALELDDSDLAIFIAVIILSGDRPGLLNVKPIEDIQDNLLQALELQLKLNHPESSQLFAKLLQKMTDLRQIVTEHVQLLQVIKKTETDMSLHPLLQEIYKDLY
Nature of the series: Transactivation of Gal4-tagged PPARgamma ligand binding domain (unknown origin) expressed in COS7 cells measured after overnight incubation by luciferase reporter gene assay. Format: cell-based, COS-7.

Series [15] is described as follows: Metabolic stability in Sprague-Dawley rat liver microsomes assessed as parent compound remaining at 10 uM measured after 15 mins in presence of NADPH regenerating system by HPLC method (reference value: 97.6 +/- 0.8%). Conditions: read-out: Stability. It counts as ADME.
Series [16] is described as follows: Antiproliferative activity against human HepG2 cells assessed as cell viability at 50 uM after 48 hrs by WST1 assay (reference value: 100%). Format: cell-based. The following applies: read-out: Activity.
Series [17] in a line: Metabolic stability in Sprague-Dawley rat liver microsomes assessed as parent compound remaining at 10 uM measured after 60 mins in presence of NADPH regenerating system by HPLC method (reference value: 97.6 +/- 0.8%). Format: ADME. Conditions: read-out: Stability.
Series [18] addresses T6, Peroxisome proliferator-activated receptor gamma (Homo sapiens) (UniProt P37231).
T6 sequence (whole entry): T5 sequence (P37231 whole entry)
Put plainly: Transactivation of Gal4-tagged PPARgamma ligand binding domain (unknown origin) expressed in COS7 cells measured after overnight incubation by luciferase reporter gene assay relative to piaglitazone. It counts as cell-based. Conditions: Chlorocebus aethiops; COS-7.

Each structure is given as a SMILES string. Converted amounts (≈) assume the structure as drawn.

For `O=C(O)Cc1cccc(NC(=O)c2ccccc2NC(=O)c2ccc3ccccc3c2)c1`, the EC50 in [1] came to 14.4 µM; in [10] it was 1.3 µM; in series [14] it was 18 µM. Moreover, in [2], the LDH release (% cytotoxicity) at 48 h, 30 µM is 23.3%. In addition, the viability at 48 h, 5 µM in series [3] is 99.5%. Moreover, in [4], the viability at 48 h, 10 µM was 115%. The LDH release (% cytotoxicity) at 48 h, 5 µM in [5] is -2.4%. Further, the max activation stood at 20.9% in series [6], 147% in [11] and 335% in series [18]. Moreover, the remaining at 0.5 h, 10 µM in series [7] is 82.3%. The Ratio EC50 in [8] came out at 13; in [12], 11. Besides, in [9], the LDH release (% cytotoxicity) at 48 h, 10 µM turned out to be 0.3%. Besides, the solubility in [13] came to 6 µM (≈ 2.55 µg/mL). Also, the remaining at 0.25 h, 10 µM in series [15] came to 91.4%. In [16], the viability at 48 h, 50 µM was determined as 89.3%. The remaining at 1 h, 10 µM in series [17] turned out to be 80.5%.

(Values after ChEMBL document CHEMBL3393039, “Anthranilic acid derivatives as nuclear receptor modulators--development of novel PPAR selective and dual PPAR/FXR ligands” (Bioorg Med Chem, 2015).)
